Experimental data as given in PubChem BioAssay (NCI).
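1) Cells in 96-well plates. 2) Compound, 48 h, 5 concentrations. 3) Linear interpolation between surrounding doses. 4) Unreached endpoint = highest concentration. At the GI50, growth is halved. At the TGI there is no net growth.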

The compounds below were run on SF-268 CNS (assay: DTP human tumour cell line panel, 48 h).
For `O=C(c1ccccc1)c1nnc(C(=O)c2ccccc2)nn1`, the TGI was > 344 µM.
For `Brc1cccc(C=NC23CC4CC(CC(C4)C2)C3)c1`, the TGI was > 100 µM.
Work on `CC(C)c1nc(CN(C)C(=O)N[C@H](C(=O)N[C@@H](Cc2ccccc2)C[C@H](O)[C@H](Cc2ccccc2)NC(=O)OCc2cncs2)C(C)C)cs1` yielded a GI50 of 20.3 µM and a TGI of 66.7 µM.
Work on `CCC[CH2][Sn]([CH2]CCC)([O]C(=O)c1cccnc1SC)[O]C(=O)c1cccnc1SC` yielded a GI50 of 0.65 µM and a TGI of 2.01 µM.
`O=C1O[C@@H](c2ccc3c(c2)OCO3)C2C(=O)O[C@@H](c3ccc4c(c3)OCO4)C12` (stereo partly specified) was tested, and the TGI was > 100 µM.
With `O=C1CCC(=O)N2CCCCN12` the TGI was > 100 µM.
For `CC(C)C(=O)NC(=S)Nc1ccc([N+](=O)[O-])cc1C#N`, the TGI was > 100 µM.
With `C/C(CC(=O)Nc1cc(Cl)c(Cl)cc1Cl)=N\NC(N)=O` the TGI was > 100 µM.
With `N#Cc1cc([N+](=O)[O-])ccc1NC(=O)C(=O)Nc1n[nH]c(N)n1` the TGI was > 100 µM.
With `O=C(/C=C/c1c(O)ccc2ccccc12)c1cccc(O)c1` the TGI was > 100 µM.
In the case of `CC1=NN(C(=O)Nc2ccccc2)C(=O)C2CCC(=O)N12` (stereo unspecified), the TGI is reported as > 100 µM.
In the case of `COC(=O)C1Cc2c(n(Cc3ccccc3)c3ccccc23)C(CCC(=O)O)N1C(C)C` (stereo unspecified), the TGI is reported as > 100 µM.
With `O=C(O)CNS(=O)(=O)c1ccc(NCc2ccccc2)cc1` the TGI was > 100 µM.
With `CC(C)(C)C1C=C(Sc2ccccc2)C(=O)O1` (stereo unspecified) the TGI was > 100 µM.
For `O=c1/c(=C/c2ccco2)sc2nc3ccccc3n12`, the TGI was > 10 µM.
With `O=C1CCC2(c3ccc(F)cc3)Nc3cc(Cl)ccc3N12` (stereo unspecified) the TGI was > 100 µM.
`C/C(CC(=O)Nc1ccc(C)cc1C)=N/N=C(N)N` was tested, and the TGI was > 100 µM.

These compounds were tested on MDA-MB-231 breast (assay: DTP human tumour cell line panel, 48 h).
`CN1CCN(C(=O)OCc2nc3c(N4CCOCC4)nc(Cl)nc3n2C)CC1` was tested, and the GI50 was 0.566 µM and the TGI was 2.22 µM.
With `CCc1ccc(/C=C\c2cc(OC)c(OC)c(OC)c2)cc1` the TGI was 0.25 µM.
Work on `C=C1C(=O)O[C@H]2[C@H]1CC/C(Cn1cc(-c3ccc(OC)cc3)nn1)=C\CC[C@@]1(C)O[C@@H]21` yielded a GI50 of 1.44 µM and a TGI of 3.15 µM.
In the case of `CC(=O)OCCN1c2ccccc2Sc2cnccc21`, the TGI is reported as > 10 µM.
With `CC(C)(CC(=O)Nc1ccccc1)C(=O)O` the TGI was > 100 µM.
`COc1ccc(/C(COc2c(-c3ccccc3)oc3ccccc3c2=O)=N\O)cc1` was tested, and the GI50 was 18.3 µM and the TGI was > 50 µM.
Compound `CC(C)c1nc(CN(C)C(=O)N[C@H](C(=O)N[C@@H](Cc2ccccc2)C[C@H](O)[C@H](Cc2ccccc2)NC(=O)OCc2cncs2)C(C)C)cs1` has a GI50 of 18 µM and a TGI of 35.1 µM.

These compounds were tested on SK-OV-3 ovarian (assay: DTP human tumour cell line panel, 48 h).
`CN1CCN(C(=O)OCc2nc3c(N4CCOCC4)nc(Cl)nc3n2C)CC1` was tested, and the GI50 was 6.15 µM and the TGI was 18.8 µM.
In the case of `COC(=O)c1c/c(=N\NC(=O)CC(=O)Nc2ccccc2OC)c2ccccc2o1`, the TGI is reported as > 100 µM.
In the case of `NC(CCC(=O)NC(CSSCCCCS(=O)O)C(=O)NCC(=O)O)C(=O)O` (stereo unspecified), the TGI is reported as > 100 µM.
With `COC12C=C(C)C(CC1)CC2C(=O)O` (stereo unspecified) the TGI was > 100 µM.
With `OCC(O)CC[CH2][Sn]([Br])([c]1ccccc1)[c]1ccccc1` (stereo unspecified) the GI50 was > 100 µM and the TGI was > 100 µM.
With `O=c1c2cc([N+](=O)[O-])ccc2sc2ccsc12` the TGI was > 100 µM.
`COc1ccc(C2=CC3CCC2C3)cc1` (stereo unspecified) was tested, and the TGI was > 100 µM.
For `C=C1C(=O)O[C@H]2[C@H]1CC/C(Cn1cc(-c3ccc(OC)cc3)nn1)=C\CC[C@@]1(C)O[C@@H]21`, the GI50 was 16.3 µM and the TGI was 29.9 µM.
With `[Cl-].[Dy+3].[O-]/N=C(\c1ccccc1)c1ccccn1.[O-]/N=C(\c1ccccc1)c1ccccn1.[O-]/N=C(\c1ccccc1)c1ccccn1` the GI50 was 33.9 µM and the TGI was > 100 µM.
For `CC(=O)OCCN1c2ccccc2Sc2cnccc21`, the TGI was > 10 µM.
In the case of `CC(C)(CC(=O)Nc1ccccc1)C(=O)O`, the TGI is reported as > 100 µM.
For `COc1ccc(/C(COc2c(-c3ccccc3)oc3ccccc3c2=O)=N\O)cc1`, the GI50 was 16.9 µM and the TGI was > 50 µM.
In the case of `NC(=O)C(=O)N/N=C(\CC1(O)C(=O)Nc2ccccc21)c1ccc2ccccc2c1` (stereo unspecified), the TGI is reported as > 100 µM.
`Cc1cc2c(cc1C)[n+](=O)c(C(=O)C/C(=N/NC(=O)CC#N)C(=O)Nc1ccccc1C(F)(F)F)c(C)n2[O-]` was tested, and the TGI was > 100 µM.
In the case of `COC(=O)/C(=N/NC(=O)C[N+](C)(C)C)C(C(=O)OC)C(=O)C(=O)Nc1ccc(F)cc1` (stereo unspecified), the TGI is reported as > 100 µM.
In the case of `O=C(c1ccccc1)c1nnc(C(=O)c2ccccc2)nn1`, the TGI is reported as > 344 µM.
With `Brc1cccc(C=NC23CC4CC(CC(C4)C2)C3)c1` the TGI was > 100 µM.
For `CC(C)c1nc(CN(C)C(=O)N[C@H](C(=O)N[C@@H](Cc2ccccc2)C[C@H](O)[C@H](Cc2ccccc2)NC(=O)OCc2cncs2)C(C)C)cs1`, the GI50 was 35.8 µM and the TGI was > 100 µM.
For `CCC[CH2][Sn]([CH2]CCC)([O]C(=O)c1cccnc1SC)[O]C(=O)c1cccnc1SC`, the GI50 was 2.36 µM and the TGI was 5.83 µM.
`O=C1O[C@@H](c2ccc3c(c2)OCO3)C2C(=O)O[C@@H](c3ccc4c(c3)OCO4)C12` (stereo partly specified) was tested, and the TGI was > 100 µM.
In the case of `O=C1CCC(=O)N2CCCCN12`, the TGI is reported as > 100 µM.
With `CC(C)C(=O)NC(=S)Nc1ccc([N+](=O)[O-])cc1C#N` the TGI was > 100 µM.
With `C/C(CC(=O)Nc1cc(Cl)c(Cl)cc1Cl)=N\NC(N)=O` the TGI was > 100 µM.
In the case of `N#Cc1cc([N+](=O)[O-])ccc1NC(=O)C(=O)Nc1n[nH]c(N)n1`, the TGI is reported as > 100 µM.
With `O=C(/C=C/c1c(O)ccc2ccccc12)c1cccc(O)c1` the TGI was > 100 µM.
For `CC1=NN(C(=O)Nc2ccccc2)C(=O)C2CCC(=O)N12` (stereo unspecified), the TGI was > 100 µM.
With `COC(=O)C1Cc2c(n(Cc3ccccc3)c3ccccc23)C(CCC(=O)O)N1C(C)C` (stereo unspecified) the TGI was > 100 µM.
`O=C(O)CNS(=O)(=O)c1ccc(NCc2ccccc2)cc1` was tested, and the TGI was > 100 µM.
`CC(C)(C)C1C=C(Sc2ccccc2)C(=O)O1` (stereo unspecified) was tested, and the TGI was > 100 µM.
`CCC[CH2][Sn]1([CH2]CCC)[O]Cc2nc(C)ccc2[O]1` gave a GI50 of 15.8 µM and a TGI of 29.7 µM.
In the case of `O=c1/c(=C/c2ccco2)sc2nc3ccccc3n12`, the TGI is reported as > 100 µM.
With `O=C1CCC2(c3ccc(F)cc3)Nc3cc(Cl)ccc3N12` (stereo unspecified) the TGI was > 100 µM.
With `C/C(CC(=O)Nc1ccc(C)cc1C)=N/N=C(N)N` the TGI was > 100 µM.

Each compound was assayed on SK-MEL-5 melanoma (assay: DTP human tumour cell line panel, 48 h).
With `CN1CCN(C(=O)OCc2nc3c(N4CCOCC4)nc(Cl)nc3n2C)CC1` the GI50 was 1.55 µM and the TGI was 2.89 µM.
For `COC(=O)c1c/c(=N\NC(=O)CC(=O)Nc2ccccc2OC)c2ccccc2o1`, the TGI was > 100 µM.
In the case of `NC(CCC(=O)NC(CSSCCCCS(=O)O)C(=O)NCC(=O)O)C(=O)O` (stereo unspecified), the TGI is reported as > 100 µM.
In the case of `COC12C=C(C)C(CC1)CC2C(=O)O` (stereo unspecified), the TGI is reported as > 100 µM.
